Values joined by “and” are separate entries in the source; they are usually repeats but may differ in a detail not shown here. Equal entries are not always repeated. “Also recorded” adds a separate entry of the source. Marks after values point to notes of the source that are not given here.
Experiments:
[1] = system: collagen antibody-induced arthritis; experiment: Mouse CAIA: hind paw / footpad volume (swelling, disease burden); assay type: in vivo, Balb C mice; design: Mean Disease Burden / Total Disease Burden (AUC) / Hind Limb Volume, Mean Diff. / Total Disease, Mean Diff.: unit not given here; details: for Hind Limb Volume, Mean Diff. / Hind Limb Volume, Summary (significance) / Total Disease, Mean Diff. / Total Disease, Summary (significance): Vehicle vs agent, Dunnett's Multiple Comparison Test; for % Disease Suppression / Total Disease Burden (AUC): days 8-22; for Maximum Δ Mean Volume: difference between mean combined foot pad volumes on day 8 and on median day of maximal swelling, vehicle 0.21; for Mean Disease Burden: group mean AUC of combined footpad volume over baseline, days 8 to 22, vehicle 1.93; for % Disease Suppression (vs Vehicle): percent decrease in total disease burden relative to vehicle
Description: (§1) Balb C mice (n=10 per cohort) were used to determine the efficacy of Factor H (FH) during […]. The mice were treated with ArthritoMAb (anti-collagen) antibody cocktail (2 mg, i.v.) on day 1, followed 7 days later with an injection of LPS (50 μg, i.p.). On day 8, hind paw volumes were measured for each animal and distributed to various treatment groups.
Factor H was formulated in 20 mM Citrate, 150 mM NaCl, pH=6. […] Ethanercept was formulated as Enbrel™ in saline. Vehicle was formulated in 20 mM Citrate, 150 mM NaCl, pH=6. […] The dosing volume for Factor H and BX12 was 25 mL/kg (0.500 mL/20 g mouse) and adjusted accordingly for body weight.
(§2) Dosing with the different agents was started on day 8 as described in Table 3.
(§3) The age at start date was 7 to 9 weeks. Body weights were measured bi-weekly to the endpoint (Table 4). At the endpoint, tissue samples were processed for histology and submitted to a pathologist for independent analysis. Sampling 1 was performed at the endpoint. The hind limbs were preserved in 10% formalin. Sampling 2 was performed at the endpoint for group 4 animals. Blood was collected by terminal cardiac puncture. The blood was processed for anti-coagulant. The kidneys were additionally preserved in formalin and followed with 70% EtOH. Samples were scored for inflammation, pannus (granulation tissue), cartilage damage, bone resorption and exostosis (Table 5).

[2] = Mouse CAIA: body weight and tolerability; assay type: in vivo, Balb C mice
Description: as §1, §2
as §3, with “Hind paw volumes were measured on day 8, 11, 12, 13, 15, 19 and 22 (endpoint). The age” for “The age”

[3] = system: pre-sensitized kidney transplants; experiment: Early phase kidney allograft histology, HE staining (Example 3); assay type: in vivo, C57BL/6 (B6) mice; details: result in words; POD5 (FIG. 6B)
Description: The effect of CFH with or without Adrenomedullin (AM) on kidney graft function, antibody response, and histology was determined following the early phase of transplantation (POD3 and POD5). The pre-sensitized kidney transplants were treated with CFH (8 mg, i.p.) on day −1, day 0 and then every other day. To test whether AM provides additional benefits to renal graft function, an additional group of transplants were treated with a single dose infusion (200 μl, i.v.) of AM (˜100 ug/kg) mixed with CFH (˜1 mg/kg) immediately following the transplant surgery (POD0), in addition to the i.p. injection of CFH (day-1, 0, and every other day).
All mice were sacrificed on POD3 and 5, respectively (˜5/ea). Untreated transplants sacrificed at the same endpoints were used as controls. Graft tissues were harvested for histology and immune-histochemistry (IHC). The experimental groups were as follows: 1) C3H to B6 txs+pre-sensitization+control; 2) C3H to B6 txs+pre-sensitization+CFH (i.p.); and 3) C3H to B6 txs+pre-sensitization+CFH (i.p.)+AM/CFH infusion (at time of transplant).

[4] = system: pre-sensitized kidney transplants; experiment: Early phase (POD3, POD5) kidney graft function, CFH with or without Adrenomedullin (Example 3); assay type: in vivo, C57BL/6 (B6) mice; details: result in words; POD5, vs. untreated controls (FIG. 6A)
Description: The effect of CFH with or without Adrenomedullin (AM) on kidney graft function, antibody response, and histology was determined following the early phase of transplantation (POD3 and POD5). […] To test whether AM provides additional benefits to renal graft function, an additional group of transplants were treated with a single dose infusion (200 μl, i.v.) of AM (˜100 ug/kg) mixed with CFH (˜1 mg/kg) immediately following the transplant surgery (POD0), in addition to the i.p. injection of CFH (day-1, 0, and every other day). CFH is a serum-binding protein for AM. It has been shown that AM influences the complement regulatory function of Factor H by enhancing the cleavage of C3b via Factor I. […] FH concentration will be 112.5 μg/ml). Transfer 220 μl aliquots to sterile tubes and freeze at −70 until ready for use. All mice were sacrificed on POD3 and 5, respectively (˜5/ea). Untreated transplants sacrificed at the same endpoints were used as controls. Graft tissues were harvested for histology and immune-histochemistry (IHC). The experimental groups were as follows: 1) C3H to B6 txs+pre-sensitization+control; 2) C3H to B6 txs+pre-sensitization+CFH (i.p.); and 3) C3H to B6 txs+pre-sensitization+CFH (i.p.)+AM/CFH infusion (at time of transplant).

[5] = system: C3H kidneys grafted into pre-sensitized recipients; experiment: Pre-sensitized mouse kidney allograft model, CFH with or without FK506, creatinine (Example 1); assay type: in vivo, C57BL/6 (B6) mice
Description: Male C3H (H-2k) and C57BL/6 (B6, H-2b) mice (25-30 g) were used to determine the efficacy of Complement Factor H (CFH) during transplant rejection. C3H mice served as skin graft and kidney donors for pre-sensitization and kidney transplantation. Male C57BL/c (B6) mice were used as recipients. The B6 recipients were pre-sensitized by transplantation of the donor skin grafts, and were subsequently transplanted with kidney allografts between 15 and 20 days after the skin transplantation. B6 mice were treated with vehicle (controls), CFH (day −1, day 0, then every other day to day 10; 8 mg/mouse, i.p.), FK506 (daily from day −1 to day 10; 1 mg/kg s.c.) or the combination of CFH+FK506 using the same dosage regime as the single treatments. Mice were monitored daily for signs of rejection. Renal function was monitored by measuring serum creatinine levels.

[6] = day 8 of study, group mean, n 10
[7] = day 11 of study, group mean, n 10
[8] = day 12 of study, group mean, n 10
[9] = day 13 of study, group mean, n 10
[10] = day 16 of study, group mean, n 10
[11] = day 19 of study, group mean, n 10
[12] = day 22 of study, group mean, n 10
[13] = individual animal, listed as BX12

Substance | Hind Limb Volume, Mean Diff. [1] | Hind Limb Volume, Summary (significance) [1] | Total Disease, Mean Diff. [1] | Total Disease, Summary (significance) [1] | Hind paw volume [1, 6] [mL] | Hind paw volume [1, 7] [mL] | Hind paw volume [1, 8] [mL] | Hind paw volume [1, 9] [mL] | Hind paw volume [1, 10] [mL] | Hind paw volume [1, 11] [mL] | Hind paw volume [1, 12] [mL] | % Disease Suppression ([1]; group mean, n 10) [%] | Total Disease Burden (AUC) ([1]; group mean, n 10) | Maximum Δ Mean Volume [1] | Mean Disease Burden [1] | % Disease Suppression (vs Vehicle) [1] [%] | Mean Body Weigh at Nadir ([2]; mouse, in vivo) [%] | other results
Etanercept | 0.08143 | ** (= P < 0.01) | 1.19 | ** (= P < 0.01) | 0.35 | 0.44 | 0.44 | 0.42 | 0.38 | 0.42 | 0.38 | 61.66 | 0.74 | 0.13** ml | 0.74** | 61.7 | −5.7 | Hind paw volume ([1]; day 8 of study, individual animal): 0.41 mL and 0.4 mL and 0.38 mL and 0.37 mL and 0.35 mL and 0.34 mL and 0.32 mL and 0.31 mL and 0.3 mL (2×); Hind paw volume ([1]; day 11 of study, individual animal): 0.49 mL and 0.44 mL (2×) and 0.37 mL and 0.38 mL and 0.59 mL and 0.4 mL (2×) and 0.45 mL and 0.41 mL; Hind paw volume ([1]; day 12 of study, individual animal): 0.58 mL and 0.44 mL and 0.35 mL and 0.42 mL and 0.46 mL and 0.49 mL and 0.45 mL and 0.39 mL (2×) and 0.4 mL; Hind paw volume ([1]; day 13 of study, individual animal): 0.58 mL and 0.41 mL (2×) and 0.36 mL and 0.33 mL and 0.49 mL and 0.39 mL and 0.35 mL and 0.43 mL and 0.4 mL; Hind paw volume ([1]; day 16 of study, individual animal): 0.45 mL and 0.46 mL and 0.34 mL and 0.37 mL and 0.43 mL and 0.41 mL and 0.33 mL (2×) and 0.32 mL and 0.3 mL; Hind paw volume ([1]; day 19 of study, individual animal): 0.61 mL and 0.43 mL and 0.4 mL and 0.47 mL (2×) and 0.32 mL and 0.42 mL and 0.35 mL and 0.33 mL and 0.36 mL; Hind paw volume ([1]; day 22 of study, individual animal): 0.55 mL and 0.41 mL (2×) and 0.34 mL (2×) and 0.39 mL and 0.36 mL (3×) and 0.32 mL; % Disease Suppression ([1]; individual animal): 16.3% and 74.3% and 109.8% and 81.9% and 52.3% and 49.7% and 69.4% and 70.2% and 29.0% and 63.7%; Total Disease Burden (AUC) ([1]; individual animal): 1.62 and 0.58 (2×) and −0.19 and 0.35 and 0.92 and 0.97 and 0.59 and 1.37 and 0.70
Factor H | 0.1199 | *** (= P < 0.001) | 1.88 | *** (= P < 0.001) | 0.35 | 0.39 | 0.44 | 0.36 | 0.31 | 0.34 | 0.35 | 97.33 | 0.05 | 0.12*** ml | 0.05*** | 97.3 | −7.4 | Hind paw volume ([1]; day 8 of study, individual animal, listed as BX12): 0.41 mL and 0.4 mL and 0.38 mL and 0.37 mL and 0.35 mL and 0.34 mL and 0.32 mL (2×) and 0.3 mL (2×); Hind paw volume ([1]; day 11 of study, individual animal, listed as BX12): 0.44 mL and 0.36 mL and 0.38 mL and 0.4 mL and 0.34 mL and 0.39 mL and 0.46 mL and 0.43 mL and 0.35 mL; Hind paw volume ([1]; day 12 of study, individual animal, listed as BX12): 0.5 mL and 0.56 mL and 0.52 mL and 0.4 mL and 0.35 mL and 0.55 mL and 0.37 mL and 0.34 mL and 0.3 mL and 0.45 mL; Hind paw volume ([1]; day 13 of study, individual animal, listed as BX12): 0.32 mL (2×) and 0.54 mL and 0.36 mL and 0.29 mL (2×) and 0.43 mL and 0.37 mL and 0.39 mL and 0.33 mL; Hind paw volume ([1]; day 16 of study, individual animal, listed as BX12): 0.29 mL (2×) and 0.35 mL (2×) and 0.32 mL and 0.28 mL (3×) and 0.42 mL and 0.27 mL; Hind paw volume ([1]; day 19 of study, individual animal, listed as BX12): 0.3 mL (2×) and 0.4 mL and 0.42 mL and 0.31 mL and 0.25 mL and 0.45 mL and 0.29 mL (2×) and 0.36 mL; Hind paw volume ([1]; day 22 of study, individual animal, listed as BX12): 0.38 mL and 0.39 mL and 0.32 mL (2×) and 0.33 mL and 0.42 mL and 0.35 mL and 0.34 mL (2×) and 0.29 mL; % Disease Suppression [1, 13]: 140.2% and 93.5% and 107.8% and 121.6% and 130.8% and 38.3% and 96.1% and 96.9% and 65.5% and 52.1%; Total Disease Burden (AUC) [1, 13]: −0.78 and 0.13 and −0.15 and −0.42 and −0.60 and 1.19 and 0.08 (2×) and 0.55 and 0.35; foot pad / hind limb swelling ([1]; result in words (Table 9, FIG. 9), listed as FH): lower mean change in foot pad swelling on the day of maximal swelling compared to vehicle; also recorded: performed well compared to Etanercept; kidney graft morphology (HE staining) [3]: improved morphology with less tubular necrosis on POD5; renal function, Cr level [4]: trend of improved renal function; body weights vs. vehicle controls ([2]; mouse, in vivo): comparable to vehicle controls; treatment-related deaths ([2]; result in words, FH 440 mg/kg i.p. qodx7): no treatment-related deaths; plasma Cr levels ([5]; POD7, CFH 8 mg/mouse i.p., controls 1.9±0.1): 1.4 ± 0.2 mg/dL; renal allograft function ([5]; result in words, creatinine on POD7 (FIG. 2)): improving renal allograft function

From patent US9248162B2, “Factor H for treatment of rheumatoid arthritis” (Baxter International Inc., priority 2013, dated 2016)
